According to US20220002288A1, “MONOBACTAM COMPOUNDS AND USE THEREFOR” (priority 2018, published 2022):
Converted amounts (≈) assume the structure as drawn.

Legend:
[1] = system: clinically isolated Pseudomonas aeruginosa; assay: MIC experiment of clinically sourced bacterial strains; assay type: cell-based
Description: (§1) Compounds: the compound of Example 1 and Compound C of Comparative Example 3. Both test compounds were dissolved and diluted with DMSO, and the final concentrations were prepared as 64, 32, 16, 8, 4, 2, 1, 0.5, 0.25, 0.125, 0.0625 μg/mL in the experiment.
(§2) Bacterial strains: clinically isolated Acinetobacter baumannii, Pseudomonas aeruginosa, Klebsiella pneumoniae and Escherichia coli, all provided by HD Biosciences (Shanghai) Co., Ltd.
(§3) Medium: Trypticase soy agar (TSA) (BD BBL 211043), and Cation-adjusted Mueller Hinton broth (CAMHB) (BD BBL212322).
(§4) The experimental method was the same as that in the above Experimental Example 1.

[2] = system: clinically isolated Escherichia coli; assay: as above; assay type: cell-based
Description: as §1, §2, §3, §4

[3] = system: clinically isolated Klebsiella pneumoniae; assay: as above; assay type: cell-based; details: Klebsiella pneumoniae
Description: as §1, §2, §3, §4

[4] = system: clinically isolated Acinetobacter baumannii; assay: as above; assay type: cell-based; details: for MIC: Acinetobacter baumannii
Description: as §1, §2, §3, §4

[5] = system: Acinetobacter baumannii, Pseudomonas aeruginosa, and Escherichia coli; assay: In vitro antibacterial activity, summary statements over all strains of Experimental Example 1; assay type: cell-based; details: method of Experimental Example 1
Description: Compounds: The compounds prepared in the above examples and comparative examples. All test compounds were dissolved and diluted with DMSO, and the final concentrations were prepared as 64, 32, 16, 8, 4, 2, 1, 0.5, 0.25, 0.125, 0.0625 μg/mL in the experiment.
Bacterial strains: 6 strains of Acinetobacter baumannii (codenames: HDBAB-YK4, HDBAB-YK7, HDBAB-YK12, HDBAB-YK16, HDBAB_OXA_7, ATCC 19606), 2 strains of Pseudomonas aeruginosa (codenames: HDBPA-YK9, HDBPA)-YK15), 1 strain of Escherichia coli (codename: CLB30048), all provided by HD Biosciences (Shanghai) Co., Ltd.
The minimum inhibitory concentration (MIC) of each compound was recorded according to the guidelines of the Clinical and Laboratory Standards Institute.

[6] = system: drug-resistant Acinetobacter baumannii; assay: MIC in combination with Relebactam; assay type: cell-based
Text: In addition, the inventors of the present invention also tested the inhibitory activities of the compound of Example 1 and Compound C, respectively, in combination with Relebactam on drug-resistant Acinetobacter baumannii (the experimental method was the same as that in Experimental Example 1).

[7] = Pharmacokinetics of the compounds in mice; assay type: in vivo, BALB/c mice; details: compared with some compounds of the present invention
Text: Animals: male BALB/c mice, SPF grade, purchased from Changzhou Cavens Experimental Animal Co., Ltd.; 16-24 g, license number: SCXK (Su)2016-0010; 2 to 3 days of adaptation period were given before the experiment.
Instruments: API 4500 High Performance Liquid Chromatograph Coupled Triple Quadrupole Mass Spectrometer, and Analyst QS A01.01 Chromatography Workstation were both purchased from AB SCIEX of the United States; Milli-Q ultrapure water device was purchased from Millipore; CF16R XII desktop high-speed refrigerated centrifuge was purchased From Hitachi Company; Qilinbeier Vortex-5 oscillator was purchased from IKA Company of German; electric heating constant-temperature water bath was purchased from Changzhou Guohua Electric Appliance Co., Ltd.; electric pipette was purchased from Thermo Company of American; and microanalysis balance was purchased from Shanghai Mettler Co., Ltd.
2 mg of the test compound was weighed, added to physiological saline, vortexed for 2 min, and ultrasonicated for 3 min, to prepare a test solution with a concentration of 0.2 mg/mL for intravenous administration.
A single dose of 2 mg/kg of the test compound was administered to BALB/c mice via the tail vein, the dose volume being 0.1 mL/10 g. At 5 min, 15 min, 30 min, 1 h, 2 h, 4 h after administration, blood samples were collected from the orbital venous plexus into heparinized EP tubes (0.6 mL), which were temporarily placed on crushed ice.
The samples were centrifuged at 8000 rpm for 5 min. 15 μL of upper plasma were transferred to a 96-well plate. 150 μL of methanol:acetonitrile (v/v=1:1) (containing 20 ng/mL tolbutamide) was added to 15 μL of plasma, shaken for 3 min, and centrifuged at 4500 rpm for 5 min. 100 μL of supernatant was taken to a 2 mL deep well plate. 100 μL of diluent (pure water) was added. The samples were shaken for 3 min, and centrifuged at 4500 rpm for 5 min. 180 μL of the supernatant was transferred to the sample plate. The content of the compound in the supernatant sample was analyzed by LC-MS/MS, and various pharmacokinetic parameters were calculated with WinNonlin software.

CC1(C)[C@H](NC(=O)/C(=N\O[C@@H](COc2ccc(-c3cn(CCCN)[n+](CC4CNC4)c3)cc2)C(=O)O)c2csc(N)n2)C(=O)N1OS(=O)(=O)[O-] [Compound C, reference compound]
MIC ([1]; clinical strain P7): 2 µg/mL (≈ 2.72 µM)
MIC ([1]; clinical strain P43): 0.25 µg/mL (≈ 0.34 µM)
MIC ([1]; clinical strain P155): 2 µg/mL (≈ 2.72 µM)
MIC ([1]; clinical strain P157): 2 µg/mL (≈ 2.72 µM)
MIC ([1]; clinical strain P162): 2 µg/mL (≈ 2.72 µM)
MIC ([2]; clinical strain HDB0140): 2 µg/mL (≈ 2.72 µM)
MIC ([2]; clinical strain HDB0918): 0.25 µg/mL (≈ 0.34 µM)
MIC ([2]; clinical strain HDB1120): 0.125 µg/mL (≈ 0.17 µM)
MIC ([2]; clinical strain HDB5510): 0.25 µg/mL (≈ 0.34 µM)
MIC ([2]; clinical strain HDB8244): 0.25 µg/mL (≈ 0.34 µM)
MIC ([3]; clinical strain Kp309): 0.25 µg/mL (≈ 0.34 µM)
MIC ([3]; clinical strain Kp310): ≤ 0.063 µg/mL
MIC ([3]; clinical strain Kp472): 0.125 µg/mL (≈ 0.17 µM)
MIC ([3]; clinical strain Kp510): 0.25 µg/mL (≈ 0.34 µM)
MIC ([4]; clinical strain A0242702): ≤ 0.063 µg/mL
MIC ([4]; clinical strain A0244122): 2 µg/mL (≈ 2.72 µM)
MIC ([4]; clinical strain A0248164): 2 µg/mL (≈ 2.72 µM)
MIC ([4]; clinical strain A0248384): 2 µg/mL (≈ 2.72 µM)
MIC ([4]; clinical strain A0252247): 0.125 µg/mL (≈ 0.17 µM)
MIC ([4]; clinical strain A0254384): 0.125 µg/mL (≈ 0.17 µM)
MIC ([4]; clinical strain A0255830): 16 µg/mL (≈ 21.7 µM)
MIC ([4]; clinical strain A0257674): 0.125 µg/mL (≈ 0.17 µM)
MIC ([4]; clinical strain A0258522): 0.125 µg/mL (≈ 0.17 µM)
MIC ([4]; clinical strain A0262855): 0.125 µg/mL (≈ 0.17 µM)
MIC ([4]; clinical strain A0270386): 1 µg/mL (≈ 1.36 µM)
MIC ([4]; clinical strain A0272260): 0.125 µg/mL (≈ 0.17 µM)
MIC ([4]; clinical strain A0273375): 1 µg/mL (≈ 1.36 µM)
MIC ([4]; clinical strain A0273826): 16 µg/mL (≈ 21.7 µM)
MIC ([4]; clinical strain A0274925): 0.25 µg/mL (≈ 0.34 µM)
MIC ([4]; clinical strain A0283307): 0.125 µg/mL (≈ 0.17 µM)
MIC ([4]; clinical strain A0284214): 0.125 µg/mL (≈ 0.17 µM)
MIC ([4]; clinical strain A0284295): 0.125 µg/mL (≈ 0.17 µM)
MIC ([4]; clinical strain A0284552): 0.5 µg/mL (≈ 0.68 µM)
MIC ([4]; clinical strain A0285002): 2 µg/mL (≈ 2.72 µM)
MIC ([4]; clinical strain A0285050): 0.25 µg/mL (≈ 0.34 µM)
MIC ([4]; clinical strain A0285231): 2 µg/mL (≈ 2.72 µM)
MIC ([4]; clinical strain A0285299): 0.25 µg/mL (≈ 0.34 µM)
MIC ([4]; clinical strain A0285369): ≤ 0.063 µg/mL
MIC ([4]; clinical strain A0285909): 16 µg/mL (≈ 21.7 µM)
MIC ([4]; clinical strain A0286065): 2 µg/mL (≈ 2.72 µM)
MIC90 ([4]; clinically isolated Acinetobacter baumannii): 16 µg/mL (≈ 21.7 µM)
in vitro antibacterial activity (in words) [5]: weaker
MIC ([6]; strain HDBAB-YK12, in combination with 4 μg/mL Relebactam): 8 µg/mL
MIC ([6]; strain HDBAB-YK16, in combination with 4 μg/mL Relebactam): 16 µg/mL
MIC ([6]; strain HDBAB_OXA_7, in combination with 4 μg/mL Relebactam): 16 µg/mL
bioavailability (F) (in words) [7]: weaker
